Results as given in patent US11339147B2, “Lactam compound as FXR receptor agonist” (CSPC ZHONGQI PHARMACEUTICAL TECHNOLOGY (SHIJIAZHUANG) CO., …, priority 2017, dated 2022).
Read-outs that look alike come from different tables or passages of the source.

Target: T1, glutathione-S-transferase-labeled FXR human protein (Homo sapiens, UniProt Q96RI1)
T1 construct: purchased Invitrogen
T1 sequence (Q96RI1 1-486): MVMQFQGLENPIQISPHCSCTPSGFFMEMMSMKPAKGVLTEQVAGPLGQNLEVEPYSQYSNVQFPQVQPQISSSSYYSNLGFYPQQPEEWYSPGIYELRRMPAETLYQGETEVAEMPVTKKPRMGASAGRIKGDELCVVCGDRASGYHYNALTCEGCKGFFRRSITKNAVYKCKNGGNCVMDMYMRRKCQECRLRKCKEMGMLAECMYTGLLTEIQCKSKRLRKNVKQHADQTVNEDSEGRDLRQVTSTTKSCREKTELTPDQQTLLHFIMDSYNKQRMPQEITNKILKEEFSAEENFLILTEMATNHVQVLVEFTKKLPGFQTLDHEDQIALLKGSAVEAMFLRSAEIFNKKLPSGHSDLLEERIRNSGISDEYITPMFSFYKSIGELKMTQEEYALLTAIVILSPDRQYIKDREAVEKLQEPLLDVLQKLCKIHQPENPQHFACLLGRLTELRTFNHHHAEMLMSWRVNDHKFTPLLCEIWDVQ
Assay: FXR biochemical experiment (alphascreen, coactivator recruitment)
Settings: for EC50: alphascreen, activation of FXR binding reaction with steroid receptor coactivator, read-out: FXR enzyme activity EC50; for Emax: read-out: FXR enzyme activity Efficacy (activation efficacy percent)
Protocol: FXR Biochemical Experiment
To test the effect of the compound on the activation of the FXR binding reaction by a Homogenous Proximity Luminescent Amplified Assay (alphascreen).
1. Protein: glutathione-S-transferase-labeled FXR human protein (Invitrogen)
2. Coactivator: biotin-labeled steroid receptor coactivator (Anaspec)
3. Detection reagent: Homogenous Proximity Luminescent Amplified Assay (alphascreen) detection kit (PerkinElmer)
1. Dilution of compounds: The test compound was prepared as a 40 μM DMSO solution, which was then diluted 3-fold to 10 concentration points. The reference compound was prepared as a 400 μM DMSO solution, and then was 1.5-fold diluted to 10 concentration points. The diluted DMSO solution was added to the micro-wells of a 384-well plate at a volume of 150 nl per well.
2. Glutathione-S-transferase-labeled FXR human protein and biotin-labeled steroid receptor coactivator were prepared to a mixed solution at a concentration of 0.4 nM and 30 nM, respectively. The mixed solution was added to the micro-wells of the 384-well plate at a volume of 15 μL per well, and incubated for 1 hour at room temperature.
3. […] The experiment process was protected from light. It was incubated for 1 hour at room temperature.
4. […] The experiment process was protected from light. It was incubated for 1 hour at room temperature.
5. EC50 test: Envision was used to excite at 680 nm and the […] signal at 520-620 nm was read.
6. Data analysis: Data analysis was conducted using Prism 5.0 to calculate the EC50 value of the activation effect of the compound.

[1] = highest signal relative to reference compound chenodeoxycholic acid (Examples 1-30)
[2] = highest signal relative to reference compound obeticholic acid (Examples 31-47)

Structure (SMILES): O=C(O)C1CCC(CN2C(=O)C3(CC3)c3cc(OCc4c(-c5c(Cl)cccc5Cl)noc4C4CC4)ccc32)CC1 (single isomer, unassigned) [Compound 20]
- EC50: 0.83 µM
- FXR enzyme activity Efficacy (activation efficacy percent) [1]: 169%

Structure (SMILES): O=C(O)C1CCC(CN2C(=O)C3(CC3)c3cc(OCc4c(-c5c(Cl)cccc5Cl)noc4C4CC4)ccc32)CC1 (single isomer, unassigned) [Compound 21]
- EC50: 0.95 µM
- FXR enzyme activity Efficacy (activation efficacy percent) [1]: 96%

Structure (SMILES): O=C(O)c1cccc(CN2C(=O)C3(CC3)c3cc(OCc4c(-c5c(Cl)cccc5Cl)noc4C4CC4)ccc32)c1 [Compound 1]
- EC50: 0.2 µM
- Emax [1]: 156%

Structure (SMILES): O=C(O)c1ccc(CN2C(=O)C3(CC3)c3cc(OCc4c(-c5c(Cl)cccc5Cl)noc4C4CC4)ccc32)cc1 [Compound 2]
- EC50: 0.29 µM
- Emax [1]: 155%

Structure (SMILES): O=C(O)c1ccc(N2C(=O)C3(CC3)c3cc(OCc4c(-c5c(Cl)cccc5Cl)noc4C4CC4)ccc32)nc1 [Compound 3]
- EC50: 0.18 µM
- Emax [1]: 165%

Structure (SMILES): Cn1cc(C(=O)O)c2ccc(N3C(=O)C4(CC4)c4cc(OCc5c(-c6c(Cl)cccc6Cl)noc5C5CC5)ccc43)cc21 [Compound 4]
- EC50: 0.2 µM
- Emax [1]: 256%

Structure (SMILES): O=C(O)c1ccc(N2C(=O)C3(CC3)c3cc(OCc4c(-c5c(Cl)cccc5Cl)noc4C4CC4)ccc32)s1 [Compound 5]
- EC50: 0.15 µM
- Emax [1]: 242%

Structure (SMILES): O=C(O)c1ccc(N2C(=O)C3(CC3)c3cc(OCc4c(-c5c(Cl)cccc5Cl)noc4C4CC4)ccc32)cc1 [Compound 6]
- EC50: 0.1 µM
- Emax [1]: 169%

Structure (SMILES): O=C(O)c1cccc(N2C(=O)C3(CC3)c3cc(OCc4c(-c5c(Cl)cccc5Cl)noc4C4CC4)ccc32)c1 [Compound 7]
- EC50: 0.24 µM
- Emax [1]: 144%

Structure (SMILES): Cc1sc(N2C(=O)C3(CC3)c3cc(OCc4c(-c5c(Cl)cccc5Cl)noc4C4CC4)ccc32)nc1C(=O)O [Compound 8]
- EC50: 0.82 µM
- Emax [1]: 35%

Structure (SMILES): COc1cc(N2C(=O)C3(CC3)c3cc(OCc4c(-c5c(Cl)cccc5Cl)noc4C4CC4)ccc32)ccc1C(=O)O [Compound 9]
- EC50: 1.56 µM
- Emax [1]: 229%

Structure (SMILES): O=C(O)c1ccc(N2C(=O)C3(CC3)c3cc(OCc4c(-c5c(Cl)cccc5Cl)noc4C4CC4)ccc32)cc1F [Compound 10]
- EC50: 1.03 µM
- Emax [1]: 312%

Structure (SMILES): O=C(O)c1cccc(CN2C(=O)C3(CCCC3)c3cc(OCc4c(-c5c(Cl)cccc5Cl)noc4C4CC4)ccc32)c1 [Compound 11]
- EC50: 0.58 µM
- Emax [1]: 82%

Structure (SMILES): O=C(O)c1ccc(N2C(=O)C3(CC3)c3ccc(OCc4c(-c5c(Cl)cccc5Cl)noc4C4CC4)cc32)cc1 [Compound 12]
- EC50: 1.76 µM
- Emax [1]: 33%

Structure (SMILES): CC1(C)C(=O)N(c2ccc(C(=O)O)cc2)c2ccc(OCc3c(-c4c(Cl)cccc4Cl)noc3C3CC3)cc21 [Compound 13]
- EC50: 0.09 µM
- Emax [1]: 163%

Structure (SMILES): CC1(C)C(=O)N(Cc2cccc(C(=O)O)c2)c2ccc(OCc3c(-c4c(Cl)cccc4Cl)noc3C3CC3)cc21 [Compound 14]
- EC50: 0.2 µM
- Emax [1]: 136%

Structure (SMILES): CC1(C)C(=O)N(c2cccc(C(=O)O)c2)c2ccc(OCc3c(-c4c(Cl)cccc4Cl)noc3C3CC3)cc21 [Compound 15]
- EC50: 0.23 µM
- Emax [1]: 152%

Structure (SMILES): O=C(O)CCCN1C(=O)C2(CC2)c2cc(OCc3c(-c4c(Cl)cccc4Cl)noc3C3CC3)ccc21 [Compound 16]
- EC50: 3.39 µM
- Emax [1]: 151%

Structure (SMILES): O=C(O)CCN1C(=O)C2(CC2)c2cc(OCc3c(-c4c(Cl)cccc4Cl)noc3C3CC3)ccc21 [Compound 17]
- EC50: 1.88 µM
- Emax [1]: 169%

Structure (SMILES): O=C(O)C1CC=C(N2C(=O)C3(CC3)c3cc(OCc4c(-c5c(Cl)cccc5Cl)noc4C4CC4)ccc32)CC1 (stereo not drawn) [Compound 18]
- EC50: 0.66 µM
- Emax [1]: 142%

Structure (SMILES): O=C(O)C12CC(CN3C(=O)C4(CC4)c4cc(OCc5c(-c6c(Cl)cccc6Cl)noc5C5CC5)ccc43)(C1)C2 [Compound 19]
- EC50: 2.56 µM
- Emax [1]: 95%

Structure (SMILES): O=C(O)c1ccc(CN2C(=O)C3(CC3)c3cc(OCc4c(-c5c(Cl)cccc5Cl)noc4C4CC4)ccc32)nc1 [Compound 22]
- EC50: 0.66 µM
- Emax [1]: 200%

Structure (SMILES): O=C(O)c1csc(N2C(=O)C3(CC3)c3cc(OCc4c(-c5c(Cl)cccc5Cl)noc4C4CC4)ccc32)c1 [Compound 23]
- EC50: 0.31 µM
- Emax [1]: 120%

Structure (SMILES): O=C(O)c1cncc(N2C(=O)C3(CC3)c3cc(OCc4c(-c5c(Cl)cccc5Cl)noc4C4CC4)ccc32)c1 [Compound 24]
- EC50: 0.61 µM
- Emax [1]: 124%

Structure (SMILES): O=C(O)c1ccc(N2C(=O)C3(CC3)c3cc(OCc4c(-c5c(Cl)cccc5Cl)noc4C4CC4)ccc32)cc1Cl [Compound 25]
- EC50: 0.41 µM
- Emax [1]: 130%

Structure (SMILES): O=C(O)c1ccccc1N1C(=O)C2(CC2)c2cc(OCc3c(-c4c(Cl)cccc4Cl)noc3C3CC3)ccc21 [Compound 26]
- EC50: 6.43 µM
- Emax [1]: 21%

Structure (SMILES): O=C(O)c1cc(F)cc(N2C(=O)C3(CC3)c3cc(OCc4c(-c5c(Cl)cccc5Cl)noc4C4CC4)ccc32)c1 [Compound 27]
- EC50: 0.41 µM
- Emax [1]: 218%

Structure (SMILES): O=C(O)c1ccc(N2C(=O)C3(CC3)c3cc(OCc4c(-c5ccccc5OC(F)(F)F)noc4C4CC4)ccc32)cc1 [Compound 28]
- EC50: 0.65 µM
- Emax [1]: 186%

Structure (SMILES): O=C(O)c1ccc(N2C(=O)C3(CC3)c3cc(OCc4c(-c5c(Cl)cncc5Cl)noc4C4CC4)ccc32)cc1 [Compound 29]
- EC50: 0.56 µM
- Emax [1]: 211%

Structure (SMILES): O=C(O)c1ccc(N2C(=O)C3(CC3)c3cc(OCc4c(-c5c(Cl)cccc5Cl)noc4C4CC4)cnc32)cc1 [Compound 30]
- EC50: 1.53 µM
- Emax [1]: 228%

Structure (SMILES): Cn1cc(C(=O)O)c2ccc(N3C(=O)CCc4cc(OCc5c(-c6c(Cl)cccc6Cl)noc5C5CC5)ccc43)cc21 [Compound 31]
- EC50: 0.043 µM
- Emax [2]: 115%

Structure (SMILES): O=C(O)c1ccc(N2C(=O)CCc3cc(OCc4c(-c5c(Cl)cccc5Cl)noc4C4CC4)ccc32)cc1 [Compound 33]
- EC50: 0.143 µM
- Emax [2]: 127%

Structure (SMILES): O=C(O)c1ccc(N2C(=O)CCc3cc(OCc4c(-c5c(Cl)cccc5Cl)noc4C4CC4)ccc32)c(F)c1 [Compound 34]
- EC50: 0.127 µM
- Emax [2]: 140%

Structure (SMILES): O=C(O)c1cnc(N2C(=O)CCc3cc(OCc4c(-c5c(Cl)cccc5Cl)noc4C4CC4)ccc32)c(F)c1 [Compound 35]
- EC50: 0.009 µM
- Emax [2]: 161%

Structure (SMILES): O=C(O)c1ccc(N2C(=O)CCc3cc(OCc4c(-c5c(Cl)cccc5Cl)noc4C4CC4)ccc32)c(Cl)c1 [Compound 36]
- EC50: 0.069 µM
- Emax [2]: 135%

Structure (SMILES): O=C(O)c1cnc(N2C(=O)CCc3cc(OCc4c(-c5c(Cl)cccc5Cl)noc4C4CC4)ccc32)s1 [Compound 38]
- EC50: 0.14 µM
- Emax [2]: 118%

Structure (SMILES): N#Cc1cc(C(=O)O)ccc1N1C(=O)CCc2cc(OCc3c(-c4c(Cl)cccc4Cl)noc3C3CC3)ccc21 [Compound 39]
- EC50: 0.035 µM
- Emax [2]: 140%

Structure (SMILES): O=C(O)c1ccc(N2C(=O)CCc3cc(OCc4c(-c5c(Cl)cccc5Cl)noc4C4CC4)ccc32)nc1 [Compound 40]
- EC50: 0.058 µM
- Emax [2]: 117%

Structure (SMILES): O=C(O)c1cccc(N2C(=O)CCc3cc(OCc4c(-c5c(Cl)cccc5Cl)noc4C4CC4)ccc32)c1 [Compound 41]
- EC50: 0.444 µM
- Emax [2]: 95%

Structure (SMILES): O=C(O)c1cc(N2C(=O)CCc3cc(OCc4c(-c5c(Cl)cccc5Cl)noc4C4CC4)ccc32)ccc1F [Compound 42]
- EC50: 0.189 µM
- Emax [2]: 137%

Structure (SMILES): Cc1cc(C(=O)O)cnc1N1C(=O)CCc2cc(OCc3c(-c4c(Cl)cccc4Cl)noc3C3CC3)ccc21 [Compound 43]
- EC50: 0.02 µM
- Emax [2]: 153%

Structure (SMILES): COc1cc(C(=O)O)ccc1N1C(=O)CCc2cc(OCc3c(-c4c(Cl)cccc4Cl)noc3C3CC3)ccc21 [Compound 44]
- EC50: 0.058 µM
- Emax [2]: 117%

Structure (SMILES): O=C(O)c1csc(N2C(=O)CCc3cc(OCc4c(-c5c(Cl)cccc5Cl)noc4C4CC4)ccc32)c1 [Compound 45]
- EC50: 0.108 µM
- Emax [2]: 117%

Structure (SMILES): O=C(O)c1ccc(N2C(=O)CCc3cc(OCc4c(-c5c(Cl)cccc5Cl)noc4C4CC4)ccc32)s1 [Compound 46]
- EC50: 0.083 µM
- Emax [2]: 126%

Structure (SMILES): O=C(O)c1ccc(N2C(=O)CCc3cc(OCc4c(-c5c(Cl)cccc5Cl)noc4C4CC4)ccc32)cc1O [Compound 47]
- EC50: 0.02 µM
- Emax [2]: 153%
